Experimental data reported in patent US20230047961A1, “THE CHOLESTEROL-SYNTESIS INTERMEDIATES FOR TREATMENT DEMYELINATING DISORDERS” (priority 2019, published 2023).
“Also recorded” adds a separate entry of the source.

What was measured:
[1] = tested on: Plp1-tg mice; test: Elevated beam test in Plp1-tg mice (Pelizaeus-Merzbacher disease model); format: in vivo, mouse; conditions: 0.5% [v/w] squalene diet between 2 and 12 weeks of age (FIG. 14a)
Source text: (§1) Plp1 transgenic Plp1-tg, line #72 mice (Readhead et al., 1994, Stumpf, Berghoff et al., 2019) harbor three copies of the murine Plp1 gene. Dietary treatment was applied between 2 and 12 weeks of age.
(§2) Dietary supplementation with squalene (0.5% [v/w]).
To assess bilateral sensorimotor coordination that involves connecting white matter structures, elevated beam test (in-house made, MPI of experimental medicine) was applied. Mice were trained to run toward a hiding box on a beam (width 1.5 cm) one week before testing. In one testing session number of slips in a defined 55 cm distance over three repeats was counted. Mean number of slips after three testing sessions (8 weeks, 10 weeks and 12 weeks) was quantified.

[2] = tested on: inflammatory cells in brain and spinal cord tissue; test: Flow cytometry of inflammatory cells in brain and spinal cord of Plp1-tg mice; format: in vivo, mouse; conditions: 0.5% [v/w] squalene diet between 2 and 12 weeks of age (FIG. 14b)
Protocol: (§3) Single-cell suspensions from spinal cords were obtained via mechanical dissociation on a cell strainer. Immune cells were separated over a two-phase Percoll-density gradient (70%/30%). Blood was collected by cardiac puncture in EDTA (80 mM) and single-cell suspension was obtained by centrifugation over lymphocyte separation medium (LSM 1077, PAA). Staining of abTCR/CD4 T cells, abTCR/CD8 T cells and CD45/CD11 b cells (macrophages/microglia) was performed using the following antibodies in a 1:200 dilution:Anti-CD3e (clone 145-2C11), BioLegend; anti-CD4 (clone GK 1.5), BD; anti-CD8 (clone 53-6.7), BD; […]; anti-CD11b (clone M1/70), BioLegend; anti-CD45.2 (clone 104), BioLegend. The addition of Calibrite APC beads (BD) allowed for cell quantification. Flow cytometry was performed using a FACSCalibur operated by Cell Quest software (Becton Dickinson).
as §1, §2

[3] = tested on: myelinating co-cultures; test: Myelinating co-culture in vitro (MBP area normalized to SM131 axons); format: cell-based; conditions: 100 μM squalene
Protocol: Myelinating co-cultures were established as described (Thomson, C. E. et al. 2008) with minor modifications. Briefly, E13 embryonic spinal cords were digested in 0.125% Trypsin solution in HBSS (without Ca^+2 and Mg^+2) at 37° C. for 20 min. After stopping the digestion with 1 ml plating media (DMEM, 25% horse serum, 25% HBSS, […] DNAse) the tissue was homogenized by gentle trituration and centrifuged for 5 min. 150,000 cells were plated per poly-L-lysine coated coverslip; 3 coverslips per 35 mm Petri dish. After cell attachment in plating media, differentiation media was added (low glucose DMEM, […] insulin, 10 ng ml^−1 biotin, 50 nM hydrocortisone, 0.5% N1-mix). N1 mix was 1 mg ml^−1 apo-transferrin, 20 mM putrescine, […] progesterone, and 6 mM sodium selenite. 50% media change was performed every 24-48 h with differentiation media. Squalene (100 μM) was added at day 3 to cultures. After 12 days, insulin was removed from differentiation media. […] Axonal (SM131) area and the area with myelin sheaths (MBP) of seven randomly chosen visual fields of myelinating co-cultures (×20 magnification) was measured by automated threshold with Fiji Software (SM131 Otsu, MBP Triangle). Specimens were analyzed on an Axiophot observer.Z1 (Zeiss) equipped with an AxioCam MRm and the ZEN 2012 blue edition software and evaluated with Image J software.

[4] = tested on: spinal cord tissue gene expression; test: RT-qPCR expression profile in spinal cord lysates of EAE mice; format: in vivo, mouse; conditions: remission phase
Protocol: (§4) For tissue expression analyses, spinal cord tissue was dissected from ˜Th10-˜L5. RNA was isolated using QIAshredder and RNeasy protocols (Qiagen). Concentration and quality of RNA was evaluated using a NanoDrop spectrophotometer and RNA Nano (Agilent). cDNA was synthesized with Superscript III (Invitrogen) and quantitative PCRs were done in triplicates with the GoTaq qPCR Master Mix (Promega) on a 7500 Fast Real-Time PCR System (Applied Biosystems). Expression values were normalized to the mean of three—five housekeeping genes, HPRT (Hypoxanthin-Phosphoribosyl-Transferase 1) and Rplp0 (60S acidic ribosomal protein P), Rps13 (Ribosomal Protein S13), Gapdh (Glyceraldehyde-3-Phosphate Dehydrogenase), 18S (18S ribosomal RNA) and quantification was done by applying the ΔΔCt method, normalized to age matched untreated controls (set to 1). All primers were intron-spanning.

[5] = tested on: inflammatory cells in spinal cord tissue; test: Flow cytometry of inflammatory cells per gram spinal cord in EAE; format: in vivo, mouse; conditions: peak of EAE disease (day 16), therapeutic squalene vs normal chow (FIG. 2)
[6] = tested on: MOG35-55 induced EAE animals; test: Clinical score of MOG35-55 induced EAE animals; format: in vivo, mouse
Protocol: For MOG-EAE, mice purchased from Charles River were immunized subcutaneously with […] myelin oligodendrocyte glycoprotein peptide 35-55 (MOG35-55) in complete Freund's adjuvant (M. tuberculosis at 3.75 mg ml^−1) and i.p. injected twice with 500 ng pertussis toxin. Animals were examined daily and scored for clinical signs of the disease. […] The clinical score was: 0 normal; 0.5 loss of tail tip tone; 1 loss of tail tone; 1.5 ataxia, mild walking deficits (slip off the grid); 2 mild hind limb weakness, severe gait ataxia, twist of the tail causes rotation of the whole body; 2.5 moderate hind limb weakness, cannot grip the grid with hind paw, but able to stay on a upright tilted grid; 3 mild paraparesis, falls down from a upright tiled grid; 3.5 paraparesis of hind limbs (legs strongly affected, but move clearly); 4 paralysis of hind limbs, weakness in forelimbs; 4.5 forelimbs paralyzed; 5 moribund/dead. […] DMHCA (Avanti) was dissolved in corn oil (Sigma) and given therapeutically in chow at a dosage of 8 mg kg^−1. IFNβ1b (Bayer) was administrated by daily intraperitoneal (i.p.) injections 30.000 U per animal.

[7] = tested on: CD11b+ myeloid cells (microglia/macrophages); test: RT-qPCR expression profile in MACS isolated CD11b+ myeloid cells of EAE mice; format: in vivo, mouse
Source text: Microglia/Macrophages were isolated according to the adult brain dissociation protocol (Miltenyi biotec). Spinal cord was isolated on ice followed by removal of meninges. Antibody labeling steps were done according to the respective antibody Microbead kit protocol (Miltenyi biotec), oligodendrocytes (04, 130-096-670) and microglia (CD11 b, 130-093-636).
as §4

[8] = tested on: peripheral inflammatory cells; test: Flow cytometry of peripheral inflammatory cells per ml blood in EAE; format: in vivo, mouse; conditions: peak of EAE disease (day 16), therapeutic squalene vs normal chow (FIG. 3a-c)
Protocol: as §3

[9] = tested on: lysolecithin induced lesions; test: Remyelination in lysolecithin induced spinal cord lesions; format: in vivo, mouse; conditions: 14 days post lesion
Protocol: Focal spinal cord demyelinating lesions were induced under MMF anesthesia (1.0 mg kg^−1 midazolam, 0.05 mg kg^−1 medetomidine and 0.02 mg kg^−1 fentanyl) by stereotactic injection of 1 μl lysolecithin (1%, from egg yolk, alpha-lysophosphatidyl-choline, Sigma) into the left and right ventro-lateral funiculus at Th10 of 8-week old animals. The injection was performed at a rate of ˜1 μl min^−1. This procedure created fusiform demyelinating lesions, 5-6 mm in length. At the day of injection, mice were randomly assigned to normal or 0.5% [v/w] squalene supplemented chow for 14 days, after which the animals were killed, and the spinal cord processed for histology. For serum isolation, blood was collected by cardiac puncture, and serum was prepared after 4 h clotting by centrifugation.
Mice were perfused with 4% paraformaldehyde (PFA). Spinal cord tissue was postfixed overnight, embedded in paraffin and cut into […] sections (HMP 110, MICROM). For immunohistological analyses, sections were deparaffinized followed by antigen-retrieval in sodium citrate buffer (0.01 M, pH 6.0). For immunofluorescence, sections were blocked with serum free protein block (Dako). Primary antibodies were diluted in 2% bovine serum albumin (BSA)/PBS and incubated for 48 h followed by fluorophor coupled secondary antibodies. Lesion area (DAPI clustered nuclei), oligodendrocyte cell number (CAll, carbonic anhydrase 2) and myelin positive area (MBP, myelin basic protein) were evaluated.

[10] = prophylactic squalene vs chow fed controls (FIG. 4a)
[11] = prophylactic squalene vs chow fed controls (FIG. 4b)
[12] = acute phase (15 days post immunization), prophylactic squalene vs chow (FIG. 5a)

SMILES: CC(C)=CCCC(C)=CCC/C(C)=C/CC/C=C(\C)CC/C=C(\C)CCC=C(C)C (stereo in doubt) [squalene, (6E,10E,14E,18E)-2,6,10,15,19,23-hexamethyltetracosa-2,6,10,14,18,22-hexaene]
- Clinical disease severity by elevated beam testing (number of slips) [1]: high potential to ameliorate clinical disease severity
- Number of inflammatory cells per gram brain [2]: reduced number of inflammatory cells
- Number of inflammatory cells per gram spinal cord [2]: reduced number of inflammatory cells
- MBP positive area normalized to SM131 positive axons ([3]; 21 DIV (FIG. 7)): increased MBP positive area
- MBP positive area normalized to SM131 positive axons ([3]; 30 DIV (FIG. 7)): increased MBP positive area
- Expression of cholesterol export genes (Abca1, Abcg1, Abcg4, Apoe, Clu) [4, 10]: significantly increased expression
- Expression of cholesterol synthesis genes (Hmgc1, Hmgcr, Fdft1, Dhcr24, Cyp51a1, Mvk) [4, 10]: significantly increased expression
- Expression of cholesterol uptake genes (Ldlr, Vldlr, Apobr, Lrp1, Lrp2) [4, 10]: significantly increased expression
- Expression of genes related to myelination and oligodendrocyte differentiation (Plp1, Car2, Olig2, Pdgfra, Cspg4) [4, 10]: significantly increased expression
- Expression of pro-inflammatory mediator genes [4, 11]: reduced expression
- Gene expression of the anti-inflammatory molecules 1110 and Tgfb1 [4, 11]: significantly increased
- Number of CD11b+/CD45+ myeloid cells per gram spinal cord [5]: reduced numbers
- Number of inflammatory CD4+ T cells per gram spinal cord [5]: reduced numbers
- Number of inflammatory CD8+ T cells per gram spinal cord [5]: reduced numbers
- Mean clinical score (EAE disease severity) ([6]; prophylactic regimen, 0.5% [v/w] squalene chow from 14 days before immunization (FIG. 1a, 1c)): ameliorate disease severity; also recorded: more effective prophylactic effect than the treatment of multiple sclerosis with interferon beta-1b
- Mean clinical score (EAE disease severity) ([6]; therapeutic regimen, 0.5% [v/w] squalene chow from day of disease onset (FIG. 1b)): ameliorate disease severity
- Mean clinical score (EAE disease severity) ([6]; therapeutic regimen, squalene 0.03% [v/w] (FIG. 10a, 10b)): Disease amelioration was already present
- Mean clinical score (EAE disease severity), dose comparison ([6]; therapeutic regimen, squalene 0.03% [v/w], 0.5% [v/w] and 5% [v/w] (FIG. 10a)): dose depend
- Expression levels of pro-inflammatory mediator genes such as TNF and IL1β [7, 12]: reduced expression levels
- Expression of anti-inflammatory molecules such as TGFβ1 [7, 12]: increased expression
- Expression of cholesterol export genes Abca1 and Apoe ([7]; acute phase, prophylactic squalene vs untreated control (FIG. 5b)): upregulated
- Number of peripheral immune cells (abTCR/CD4+, abTCR/CD8+, CD45+/CD11b+) per ml blood [8]: did not observe differences
- Number of CAII positive mature oligodendrocytes within lesion area ([9]; 0.5% [v/w] squalene chow from day of lesion induction vs control (FIG. 6b)): strongly increased
- Degree of MBP positive myelinated axons within lesion area ([9]; 0.5% [v/w] squalene chow from day of lesion induction vs control (FIG. 6f)): strongly increased
- Size of the lesion area (DAPI positive increased nuclear density) ([9]; 0.5% [v/w] squalene chow vs control (FIG. 6c)): comparable
